Results published in ChEMBL document CHEMBL1154508, “Discovery of GSK345931A: An EP(1) receptor antagonist with efficacy in preclinical models of inflammatory pain” (Bioorg Med Chem Lett, 2009).

What was measured:
[1] = Drug level in blood of sub-chronic rat joint pain efficacy model treatment group at 5 mg/kg bid measured on day 5 after 1 hr post dose; assay type: ADME, organism-based; parameters: dose 5 mg/kg; details: read-out: Drug uptake
[2] = molecular target: Voltage-gated inwardly rectifying potassium channel KCNH2 (Homo sapiens, UniProt Q12809); test: Displacement of [3H]dofetilide from human ERG receptor
Voltage-gated inwardly rectifying potassium channel KCNH2, sequence (Q12809 whole entry): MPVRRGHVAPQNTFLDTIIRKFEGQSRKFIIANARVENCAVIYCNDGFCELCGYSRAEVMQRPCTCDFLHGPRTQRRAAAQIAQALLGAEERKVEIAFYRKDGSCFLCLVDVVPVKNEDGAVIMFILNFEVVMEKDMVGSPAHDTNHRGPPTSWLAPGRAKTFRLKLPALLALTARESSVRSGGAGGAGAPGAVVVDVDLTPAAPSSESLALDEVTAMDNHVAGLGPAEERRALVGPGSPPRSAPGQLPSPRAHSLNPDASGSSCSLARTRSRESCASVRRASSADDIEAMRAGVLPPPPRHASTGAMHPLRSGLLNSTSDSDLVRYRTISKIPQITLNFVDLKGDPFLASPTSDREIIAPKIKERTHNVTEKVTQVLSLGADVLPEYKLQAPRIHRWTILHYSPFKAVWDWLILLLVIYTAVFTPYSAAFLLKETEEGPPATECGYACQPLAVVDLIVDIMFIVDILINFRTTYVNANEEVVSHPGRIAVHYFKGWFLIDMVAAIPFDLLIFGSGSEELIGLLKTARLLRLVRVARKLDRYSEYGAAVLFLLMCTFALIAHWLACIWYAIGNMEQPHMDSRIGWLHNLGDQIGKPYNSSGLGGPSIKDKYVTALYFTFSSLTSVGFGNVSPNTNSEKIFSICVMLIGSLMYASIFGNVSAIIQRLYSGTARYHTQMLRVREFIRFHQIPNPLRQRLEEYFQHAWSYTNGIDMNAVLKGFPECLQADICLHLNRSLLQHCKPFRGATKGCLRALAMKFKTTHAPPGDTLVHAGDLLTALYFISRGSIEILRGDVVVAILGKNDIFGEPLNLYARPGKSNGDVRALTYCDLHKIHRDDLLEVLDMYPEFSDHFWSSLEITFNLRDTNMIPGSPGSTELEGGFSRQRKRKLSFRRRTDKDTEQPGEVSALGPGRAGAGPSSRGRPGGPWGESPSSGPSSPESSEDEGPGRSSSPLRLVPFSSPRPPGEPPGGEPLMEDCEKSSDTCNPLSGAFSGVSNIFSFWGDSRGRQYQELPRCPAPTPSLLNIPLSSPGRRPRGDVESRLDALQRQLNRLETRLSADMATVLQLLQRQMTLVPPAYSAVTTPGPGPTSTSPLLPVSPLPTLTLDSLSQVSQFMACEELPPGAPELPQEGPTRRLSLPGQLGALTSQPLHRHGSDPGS

[3] = Ratio of drug level in brain to blood in complete Freund's adjuvant-induced rat inflammatory pain model at 10 mg/kg, po after 1 hr; assay type: ADME, organism-based; parameters: dose 10 mg/kg, route oral
[4] = Ratio of drug level in brain to blood of sub-chronic rat joint pain efficacy model treatment group at 5 mg/kg bid measured on day 5 after 1 hr post dose; assay type: ADME, organism-based; parameters: dose 5 mg/kg
[5] = molecular target: T1, Peroxisome proliferator-activated receptor delta (Homo sapiens, UniProt Q03181); test: Binding affinity PPARdelta
T1 sequence (Q03181 whole entry): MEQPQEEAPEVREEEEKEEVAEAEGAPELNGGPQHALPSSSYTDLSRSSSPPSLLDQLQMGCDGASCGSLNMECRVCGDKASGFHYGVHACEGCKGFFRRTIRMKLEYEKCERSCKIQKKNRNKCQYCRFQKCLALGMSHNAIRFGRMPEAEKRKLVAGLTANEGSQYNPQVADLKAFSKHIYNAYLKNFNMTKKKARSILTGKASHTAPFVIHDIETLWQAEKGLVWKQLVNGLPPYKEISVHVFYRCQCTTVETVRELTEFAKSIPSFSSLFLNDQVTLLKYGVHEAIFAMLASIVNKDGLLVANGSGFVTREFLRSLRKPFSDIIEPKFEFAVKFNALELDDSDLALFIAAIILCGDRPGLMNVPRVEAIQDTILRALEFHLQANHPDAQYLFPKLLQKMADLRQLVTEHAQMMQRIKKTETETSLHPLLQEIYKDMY

[6] = Ratio of drug level in brain to blood of sub-chronic rat joint pain efficacy model satellite animal group at 5 mg/kg bid measured on day 5; assay type: ADME, organism-based; parameters: dose 5 mg/kg
[7] = Oral bioavailability in rat at 3 mg/kg; assay type: ADME, organism-based; details: in vivo
[8] = Metabolic stability assessed as intrinsic clearance per gram of monkey liver microsomes; assay type: ADME, Macaca mulatta, Microsome; details: rhesus monkey
[9] = molecular target: T2, Prostaglandin E2 receptor EP1 subtype (Homo sapiens, UniProt P34995); test: Binding affinity to EP1 receptor
T2 sequence (P34995 whole entry): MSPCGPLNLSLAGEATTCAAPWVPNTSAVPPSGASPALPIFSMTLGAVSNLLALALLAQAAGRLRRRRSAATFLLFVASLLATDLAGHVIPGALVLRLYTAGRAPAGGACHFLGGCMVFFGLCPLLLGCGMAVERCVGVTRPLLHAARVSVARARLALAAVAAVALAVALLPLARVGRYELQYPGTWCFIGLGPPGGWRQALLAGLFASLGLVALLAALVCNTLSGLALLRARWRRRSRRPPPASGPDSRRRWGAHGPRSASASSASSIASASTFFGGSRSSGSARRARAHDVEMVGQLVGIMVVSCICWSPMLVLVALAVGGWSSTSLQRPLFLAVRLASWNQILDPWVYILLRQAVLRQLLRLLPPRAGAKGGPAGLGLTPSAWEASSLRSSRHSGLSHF

[10] = Drug level in rat blood at 0.28 mg/kg/hr, iv for 18 hrs; assay type: ADME, organism-based; parameters: route intravenous; details: read-out: Drug uptake
[11] = Ratio of drug level in brain to blood of sub-chronic rat joint pain efficacy model treatment group at 20 mg/kg bid measured on day 5 after 1 hr post dose; assay type: ADME, organism-based; parameters: dose 20 mg/kg
[12] = Solubility in fasted state simulated intestinal fluid after 24 hrs; assay type: physicochemical
[13] = molecular target: T2, Prostaglandin E2 receptor EP1 subtype; test: Antagonist activity at EP1 receptor by FLIPR calcium mobilization assay
[14] = Drug level in blood of sub-chronic rat joint pain efficacy model treatment group at 20 mg/kg bid measured on day 5 after 1 hr post dose; assay type: ADME, organism-based; parameters: dose 20 mg/kg; details: read-out: Drug uptake
[15] = molecular target: T3, Thromboxane A2 receptor (Homo sapiens, UniProt P21731); test: Binding affinity to TP receptor
T3 sequence (P21731 whole entry): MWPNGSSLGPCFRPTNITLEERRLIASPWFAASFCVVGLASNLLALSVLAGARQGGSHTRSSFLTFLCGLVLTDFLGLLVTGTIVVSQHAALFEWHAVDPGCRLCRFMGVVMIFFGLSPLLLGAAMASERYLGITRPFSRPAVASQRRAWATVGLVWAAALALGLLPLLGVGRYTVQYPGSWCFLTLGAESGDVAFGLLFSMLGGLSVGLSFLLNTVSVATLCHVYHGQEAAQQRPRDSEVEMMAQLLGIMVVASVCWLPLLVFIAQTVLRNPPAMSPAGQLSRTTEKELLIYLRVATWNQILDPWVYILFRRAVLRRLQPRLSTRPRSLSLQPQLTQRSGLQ

[16] = Oral bioavailability in cynomolgus monkey at 3 mg/kg; assay type: ADME, organism-based, Macaca fascicularis; details: in vivo
[17] = Blood clearance in rat at 1 mg/kg, iv; assay type: ADME, organism-based; parameters: dose 1 mg/kg, route intravenous
[18] = Ratio of drug level in brain to blood in complete Freund's adjuvant-induced rat inflammatory pain model at 2 mg/kg, po after 1 hr; assay type: ADME, organism-based; parameters: dose 2 mg/kg, route oral
[19] = Volume of distribution at steady state in rat at 1 mg/kg, iv; assay type: ADME, organism-based; parameters: dose 1 mg/kg, route intravenous; details: in vivo, read-out: Vdss
[20] = species: Rattus norvegicus; test: Antiinflammatory activity against complete Freund's adjuvant-induced hypersensitivity in rat inflammatory pain model; assay type: functional
[21] = Drug level in rat brain at 0.28 mg/kg/hr, iv for 18 hrs; assay type: ADME, organism-based; parameters: route intravenous; details: read-out: Drug uptake
[22] = Drug level in brain of sub-chronic rat joint pain efficacy model treatment group at 20 mg/kg bid measured on day 5 after 1 hr post dose; assay type: ADME, organism-based; parameters: dose 20 mg/kg; details: read-out: Drug uptake
[23] = tested on: Blood; test: Fraction unbound in rat blood; assay type: ADME, tissue-based
[24] = Drug level in brain of complete Freund's adjuvant-induced rat inflammatory pain model at 2 mg/kg, po after 1 hr; assay type: ADME, organism-based; parameters: dose 2 mg/kg, route oral; details: read-out: Drug uptake

With `CC(C)COc1ccc(Cl)cc1-c1ccccc1-c1cccc(C(=O)[O-])n1.[Na+]` the concentration at 1 h [1] was 1630 nM, the IC50 [2] was over 31.6 µM and the Kp at 1 h [3] was 0.48. It also gave a Kp at 1 h [4] of 0.57, a Ki [5] of over 20 µM and a Kp at 5 day [6] of 0.54. For the same compound, the bioavailability [7] was 95%, the CL [8] was 8 mL/min/g and the IC50 [9] was 0.0158 µM. It also gave a concentration at 18 h [10] of 1660 nM, a Kp at 1 h [11] of 0.45 and a solubility at 24 h [12] of 1050 µg/mL. The Ki [13] was 0.00251 µM, the concentration at 1 h [14] was 5530 nM and the Ki [15] was 0.316 µM. It also gave a bioavailability [16] of 34%, a clearance [17] of 11 mL/min/kg and a Kp at 1 h [18] of 0.22. It also gave a Vd [19] of 1.9 L/kg, an ED50 [20] of 1.6 mg/kg and a concentration at 18 h [21] of 550 nM. For the same compound, the concentration at 1 h [22] was 3210 nM, the Fu [23] was 0.5% and the concentration at 1 h [24] was 645 nM.
